Laboratory results from a melting point compilation (Tetko et al.; mined from patent text by program, amines drawn as free bases though some values may be those of a salt).

SMILES | melting point [°C]
CCOC(=O)Cc1cccc(Cc2nc3cc(F)cc(F)c3s2)c1 | 66 to 67
O=CNc1nc(NC2CC2)nc(N2CCOCC2)n1 | 288
CC(C)(C)c1ccc2oc(-c3ccc(O)cc3)cc2c1 | 172 to 174
CN1CCC(=C2c3cc(Br)ccc3CC(=O)c3sccc32)CC1 | 172 to 173
O=C(c1ccccc1)c1cc2ccnc(Cl)c2[nH]1 | 152 to 153
CC1=C(C(=O)OCC2CCCO2)C(c2cccc([N+](=O)[O-])c2)C(C(=O)OCC2CCCO2)=C(C)N1 (stereo unspecified) | 122 to 123
Nc1ccc(S(=O)(=O)N2C=CC(CCO)Sc3ccccc32)cc1 (stereo unspecified) | 145 to 148
CCCCCCCCSc1ccc(CC(CO)(CO)NC(C)=O)cc1 | 76 to 78
CNC(=O)N(Cc1ccc(C(C)(C)C)cc1)NC(=O)OC(C)(C)C | 124 to 129
COc1cccc(C(F)(F)F)c1S(=O)(=O)NC(=O)Nc1nc(C)cc(C)n1 | 190
C=CC[C@H](CC(=O)OC(C)(C)C)C(=O)N[C@H](C(=O)N[C@H](C)c1ccccc1)C(C)(C)C | 123 to 126
COc1ccc(C(=O)Nc2ccccc2S(C)(=O)=O)cc1OC1CCCC1 | 119 to 121
CC1(C)OC(/C=C/c2ccc(Br)cc2)=CC1=O | 109 to 110
CC(C)(C)OC(=O)N[C@@H](Cc1ccccc1Cl)C(=O)NC1CCC(Nc2cccc3c2C(=O)c2ccccc2C3=O)CC1 (stereo partly specified) | 183
N[C@H](CCC(=O)N1[C@H](C(=O)O)C[C@@H]2CCCC[C@@H]21)C(=O)O | 191 to 192
Cc1ccc(Cl)c(N2C(=O)C(=NO)c3ccccc32)c1Cl | 190 to 191
CCC(=O)N1N=C(c2ccc([N+](=O)[O-])c(C)c2)c2cc3c(cc2CC1C)OCO3 (stereo unspecified) | 172 to 175
CC(=O)c1ccc(NC(=O)N2CCN(c3ncnc4c(Cl)cccc34)CC2)cc1 | 208 to 209
ClC[Si](c1ccccc1)(c1ccccc1)c1ccccc1 | 112 to 115
COc1cc(S(C)=O)ccc1-c1nc2ccc(C(C)(C)CNS(C)(=O)=O)cc2[nH]1 (stereo unspecified) | 126 to 128
O=C(CCCC1CCN(Cc2cccc(O)c2)CC1)c1ccc2c(c1)CCN(Cc1ccccc1)CC2 | 88 to 94
Cc1nc2c(N)cc(Br)cc2n1C | 206 to 209
CC(C)(C)NS(=O)(=O)c1c(CCl)nc2ccccn12 | 180 to 182
CCOC(=O)C(Cc1ccc(C)c(OC(F)(F)C(F)F)c1)C(=O)c1ccc(F)cc1 (stereo unspecified) | 52 to 53
CS(=O)(=O)Nc1cc(O)ccc1Oc1ccccc1 | 138 to 140
CCN1CC(=O)Nc2cc(NC3(C(N)=O)CC4CC3C=C4Cl)c(OC)cc2C1 (stereo unspecified) | 154 to 156

SMILES | melting point [°C]
CCOc1ccc(C(=O)N(CC)CC)c(OCC)c1 | 45 to 56
CCCSc1ccc(NS(=O)(=O)c2cccs2)c2[nH]c(C(=O)OCC)cc12 | 150 to 151
CSC(Nc1ccc2c(c1)OCO2)=C(C#N)S(C)(=O)=O | 168 to 170
COc1cc(C2=CCCCC2)c(Cl)cc1C(=O)N1Cc2ccc(C(=O)N(C)Cc3cccnc3)n2Cc2ccccc21 | 178 to 179
CCc1ccc2nc(N)nc(Nc3ccccc3C)c2c1 | 263 to 265
CN1CCC(c2cc(F)ccc2F)(S(=O)(=O)c2ccc(Cl)cc2)CC1 | 172 to 175
CCOC(=O)c1cn(Cc2cnsn2)c2cc(F)c(F)cc2c1=O | 198 to 201
COc1ccc(Cl)c2c1NC(=O)C2=[N+]=[N-] | 206 to 207
CN(C)Cc1csc(N(C)CC#CI)n1 | 98 to 100
Cc1cc(C)cc(Cc2[nH]c(=O)[nH]c(=O)c2C(C)C)c1 | 213 to 214
O=C1OC2(CC(c3ccccc3)=NO2)c2ccccc21 (stereo unspecified) | 103 to 106
CN1C(=O)CC(c2ccccc2)C1C(O)C#Cc1ccccc1 (stereo unspecified) | 152 to 153
N#CCS(=O)(=O)c1ccc([N+](=O)[O-])cc1 | 166 to 168
O=C(Oc1cc(/C=C/c2ccc(O)cc2)cc(OC(=O)c2cc(O)c(O)c(O)c2)c1)c1cc(O)c(O)c(O)c1 | 210 to 212
O=CNC(CC(=O)O)c1ccccc1 (stereo unspecified) | 135 to 136
O=c1c2c(Cc3ccccc3O)n[nH]c2c2cccnc2n1-c1ccccc1 | 278 to 280
Cc1cc(-c2ccc(C(F)(F)F)cc2)cc(-c2cccc(-c3csc(N)n3)c2)n1 | > 250
COC(=O)c1[nH]c2c(C)ccc(Cl)c2c1C(=O)OC | 173 to 174
CC1(C)OC(=O)Nc2ccc(-c3cccc(C#CC#N)c3)cc21 | 212 to 213
CS(=O)(=O)c1ccc(N2CCc3ccccc32)c([N+](=O)[O-])c1 | 152 to 154
CS(=O)(=O)c1ccc(Oc2ccc(Cl)c(Cl)c2)c(Cl)c1 | 102 to 104
Cc1nc(C)c(Cl)c(NCc2nccc(OCCOCCSCCn3c([N+](=O)[O-])cnc3C)c2C)n1 | 102 to 105
Cc1oc2c(C)cc(C(=O)O)cc2c1C | 235 to 237
O=C(O)C1CCc2c([nH]c3ccc(Cl)cc23)C1 (stereo unspecified) | 196 to 197
Cc1ncn(-c2ccc(N3C[C@H](CO)OC3=O)cc2F)n1 | 190 to 192
